Source: patent US4952689A, “3-(substituted propylidene)-2-azetidinone derivates for blood platelet aggregation” (Taisho Pharmaceutical Co., Ltd., priority 1988, dated 1990)

What follows are molecules tested on acute thrombocytopenia (assay: Inhibitory effect on acute thrombocytopenia in mice (ADP-induced)). Settings: 300 mg/kg by gavage 2 hours prior to ADP (1 mg/kg, tail vein); platelet count at 30 seconds after ADP.
Format: in vivo, male ICR mice
Description: Experiment [Inhibitory effect on acute thrombocytopenia in mice]
Ten male ICR mice weighing 20-30 g were used for each group. Under pentobarbital anaesthesia, adenosine diphosphate (ADP) dissolved in physiological saline in a dose of 1 mg/kg was injected into the tail vein and 20 μl of blood was collected from the femoral artery at 30 seconds after injection of ADP. Immediately after blood sampling, platelet counts were measured with an automatic blood cell counter (Sysmex CC-180A). Platelet count of normal group without injection of ADP was measured as well.
Test drugs [Compounds 2 and 3 (the compounds of the present invention) and Compound 1 (the comparative drug) in Table 1] were suspended in 5% gum arabic solution and administered by gavage in a dose of 300 mg/kg 2 hours prior to injection of ADP. As control group, 5% gum arabic solution without test drugs was administered.
Inhibition ratio of acute thrombocytopenia was calculated by the following formula. [formula]
Note: A: Platelet count of the group treated with both test drug and ADP
B: Platelet count of control group with both 5% gum arabic solution and ADP
C: Platelet count of normal group without injection of ADP

Going from COc1ccc(N2C(=O)/C(=C/C(C)=NOCC(=O)O)C2c2ccccc2)cc1 (stereo not drawn) [Compound 1, (E)-1-(4-Methoxyphenyl)-3-(2-carboxymethoxyiminopropylidene)-4-phenyl-2-azetidinone, reference compound] to COc1ccc(N2C(=O)/C(=C/C(C)=NOCCCN3CCOCC3)C2c2ccccc2)cc1 (stereo not drawn) [Compound 2, (E)-1-(4-Methoxyphenyl)-3-{2-[3-(4-morpholinyl)propoxyimino]propylidene}-4-phenyl-2azetidinone], the “Inhibition Ratio” value rises from 12.00% to 54.66%.

In the case of COc1ccc(N2C(=O)/C(=C/C(C)=NOCCCN3CCN(c4ccccn4)CC3)C2c2ccccc2)cc1 (stereo not drawn) [Compound 3, (E)-1-(4-Methoxyphenyl)-3-[2-[3-{1-[4-(2-pyridyl)piperadinyl]}propoxyimino]-propylidene]-4-phenyl-2-azetidinone], the “Inhibition Ratio” value is reported as 57.61%.
